Data from article PMC11576293, “New series of 4,6-diaryl pyrimidines: facile synthesis and antiproliferative activity as dual EGFR/VEGFR-2 inhibitors” (Frontiers in Chemistry, 2024).

Columns and labels:
Test in all cases: NCI-60 single-dose screen
Type in all cases: cell-based
[1] = test system: 786-0; conditions: Homo sapiens, single dose 10 µM, '-' = no inhibition, read-out: % Growth Inhibition
Procedure, shortened: (§1)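 NCI Developmental Therapeutics Program screen across 60 human cancer cell lines from nine tumor types; compounds tested at a single dose of 10 μM.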

[2] = test system: A498; conditions: Homo sapiens, single dose 10 µM, '-' = no inhibition, read-out: % Growth Inhibition
Procedure, shortened: as §1

[3] = test system: A549/ATCC; conditions: Homo sapiens, single dose 10 µM, '-' = no inhibition, read-out: % Growth Inhibition
Procedure, shortened: as §1

[4] = test system: ACHN 1; conditions: Homo sapiens, single dose 10 µM, '-' = no inhibition, read-out: % Growth Inhibition
Procedure, shortened: as §1

[5] = test system: BT-549; conditions: Homo sapiens, single dose 10 µM, '-' = no inhibition, read-out: % Growth Inhibition
Procedure, shortened: as §1

[6] = test system: CAKI-1; conditions: Homo sapiens, single dose 10 µM, '-' = no inhibition, read-out: % Growth Inhibition
Procedure, shortened: as §1

[7] = test system: COLO 205; conditions: Homo sapiens, single dose 10 µM, '-' = no inhibition, read-out: % Growth Inhibition
Procedure, shortened: as §1

[8] = test system: DU-145; conditions: Homo sapiens, single dose 10 µM, '-' = no inhibition, read-out: % Growth Inhibition
Procedure, shortened: as §1

[9] = test system: EKVX; conditions: Homo sapiens, single dose 10 µM, '-' = no inhibition, read-out: % Growth Inhibition
Procedure, shortened: as §1

[10] = test system: HCT-15; conditions: Homo sapiens, single dose 10 µM, '-' = no inhibition, read-out: % Growth Inhibition
Procedure, shortened: as §1

[11] = test system: HL-60(TB); conditions: Homo sapiens, single dose 10 µM, '-' = no inhibition, read-out: % Growth Inhibition
[12] = test system: HOP-62; conditions: Homo sapiens, single dose 10 µM, '-' = no inhibition, read-out: % Growth Inhibition
Procedure, shortened: as §1

[13] = test system: HOP-92; conditions: Homo sapiens, single dose 10 µM, '-' = no inhibition, read-out: % Growth Inhibition
Procedure, shortened: as §1

[14] = test system: HT29; conditions: Homo sapiens, HT-29, single dose 10 µM, '-' = no inhibition, read-out: % Growth Inhibition
Procedure, shortened: as §1

[15] = test system: IGROV1; conditions: Homo sapiens, IGROV-1, single dose 10 µM, '-' = no inhibition, read-out: % Growth Inhibition
Procedure, shortened: as §1

[16] = test system: KM12; conditions: Homo sapiens, single dose 10 µM, '-' = no inhibition, read-out: % Growth Inhibition
Procedure, shortened: as §1

[17] = test system: LOX IMVI; conditions: Homo sapiens, single dose 10 µM, '-' = no inhibition, read-out: % Growth Inhibition
Procedure, shortened: as §1

[18] = test system: M14; conditions: Homo sapiens, single dose 10 µM, '-' = no inhibition, read-out: % Growth Inhibition
Procedure, shortened: as §1

[19] = test system: MALME-3M; conditions: Homo sapiens, single dose 10 µM, '-' = no inhibition, read-out: % Growth Inhibition
Procedure, shortened: as §1

[20] = test system: MDA-MB-468; conditions: Homo sapiens, single dose 10 µM, '-' = no inhibition, read-out: % Growth Inhibition
Procedure, shortened: as §1

[21] = test system: MDA-MB231/ATCC; conditions: Homo sapiens, MDA-MB-231, single dose 10 µM, '-' = no inhibition, read-out: % Growth Inhibition
Procedure, shortened: as §1

[22] = test system: MOLT-4; conditions: Homo sapiens, single dose 10 µM, '-' = no inhibition, read-out: % Growth Inhibition
Procedure, shortened: as §1

[23] = test system: NCI-H23; conditions: Homo sapiens, single dose 10 µM, '-' = no inhibition, read-out: % Growth Inhibition
Procedure, shortened: as §1

[24] = test system: NCI-H322M; conditions: Homo sapiens, single dose 10 µM, '-' = no inhibition, read-out: % Growth Inhibition
Procedure, shortened: as §1

[25] = test system: NCI-H460; conditions: Homo sapiens, single dose 10 µM, '-' = no inhibition, read-out: % Growth Inhibition
Procedure, shortened: as §1

[26] = test system: NCI-H522; conditions: Homo sapiens, single dose 10 µM, '-' = no inhibition, read-out: % Growth Inhibition
Procedure, shortened: as §1

[27] = test system: NCI/ADR-RES; conditions: Homo sapiens, single dose 10 µM, '-' = no inhibition, read-out: % Growth Inhibition
Procedure, shortened: as §1

[28] = test system: OVCAR-3; conditions: Homo sapiens, single dose 10 µM, '-' = no inhibition, read-out: % Growth Inhibition
Procedure, shortened: as §1

[29] = test system: OVCAR-4; conditions: Homo sapiens, single dose 10 µM, '-' = no inhibition, read-out: % Growth Inhibition
Procedure, shortened: as §1

[30] = test system: OVCAR-5; conditions: Homo sapiens, single dose 10 µM, '-' = no inhibition, read-out: % Growth Inhibition
Procedure, shortened: as §1

[31] = test system: PC-3; conditions: Homo sapiens, single dose 10 µM, '-' = no inhibition, read-out: % Growth Inhibition
Procedure, shortened: as §1

[32] = test system: RPMI-8226; conditions: Homo sapiens, single dose 10 µM, '-' = no inhibition, read-out: % Growth Inhibition
Procedure, shortened: as §1

[33] = test system: RXF 393; conditions: Homo sapiens, single dose 10 µM, '-' = no inhibition, read-out: % Growth Inhibition
Procedure, shortened: as §1

[34] = test system: SF-295; conditions: Homo sapiens, single dose 10 µM, '-' = no inhibition, read-out: % Growth Inhibition
Procedure, shortened: as §1

[35] = test system: SF-539; conditions: Homo sapiens, single dose 10 µM, '-' = no inhibition, read-out: % Growth Inhibition
Procedure, shortened: as §1

[36] = test system: SK-MEL-28; conditions: Homo sapiens, single dose 10 µM, '-' = no inhibition, read-out: % Growth Inhibition
Procedure, shortened: as §1

[37] = test system: SK-OV-3; conditions: Homo sapiens, single dose 10 µM, '-' = no inhibition, read-out: % Growth Inhibition
Procedure, shortened: as §1

[38] = test system: SNB-19; conditions: Homo sapiens, single dose 10 µM, '-' = no inhibition, read-out: % Growth Inhibition
Procedure, shortened: as §1

[39] = test system: SNB-75; conditions: Homo sapiens, single dose 10 µM, '-' = no inhibition, read-out: % Growth Inhibition
Procedure, shortened: as §1

[40] = test system: SR; conditions: Homo sapiens, single dose 10 µM, '-' = no inhibition, read-out: % Growth Inhibition
Procedure, shortened: as §1

[41] = test system: SW-620; conditions: Homo sapiens, single dose 10 µM, '-' = no inhibition, read-out: % Growth Inhibition
Procedure, shortened: as §1

[42] = test system: T-47D; conditions: Homo sapiens, T47D, single dose 10 µM, '-' = no inhibition, read-out: % Growth Inhibition
Procedure, shortened: as §1

[43] = test system: TK-10; conditions: Homo sapiens, single dose 10 µM, '-' = no inhibition, read-out: % Growth Inhibition
Procedure, shortened: as §1

[44] = test system: U251; conditions: Homo sapiens, U-251, single dose 10 µM, '-' = no inhibition, read-out: % Growth Inhibition
Procedure, shortened: as §1

[45] = test system: UACC-257; conditions: Homo sapiens, single dose 10 µM, '-' = no inhibition, read-out: % Growth Inhibition
Procedure, shortened: as §1

[46] = test system: UACC-62; conditions: Homo sapiens, single dose 10 µM, '-' = no inhibition, read-out: % Growth Inhibition
Procedure, shortened: as §1

[47] = test system: UO-31; conditions: Homo sapiens, single dose 10 µM, '-' = no inhibition, read-out: % Growth Inhibition
Procedure, shortened: as §1

In the case of `CCSc1nc(-c2ccc(Cl)cc2)cc(-c2ccc(OC)cc2)n1` [Compound 10, 4-(4-Chlorophenyl)-2-(ethylthio)-6-(4-methoxyphenyl)pyrimidine], the inhibition at 10 µM [1] is reported as 3.07%, the inhibition at 10 µM [2] is reported as 3.38% and the inhibition at 10 µM [3] is reported as 11.2%. It also gave an inhibition at 10 µM [4] of 2.57%, an inhibition at 10 µM [5] of under 0% and an inhibition at 10 µM [6] of 13.3%. It also gave an inhibition at 10 µM [7] of under 0%, an inhibition at 10 µM [8] of under 0% and an inhibition at 10 µM [9] of 7.83%. For the same compound, the inhibition at 10 µM [10] was 14.4%, the inhibition at 10 µM [11] was 6.15% and the inhibition at 10 µM [12] was under 0%. It also gave an inhibition at 10 µM [13] of under 0%, an inhibition at 10 µM [14] of 9.13% and an inhibition at 10 µM [15] of under 0%. For the same compound, the inhibition at 10 µM [16] was 1.5%, the inhibition at 10 µM [17] was under 0% and the inhibition at 10 µM [18] was under 0%. It also gave an inhibition at 10 µM [19] of under 0%, an inhibition at 10 µM [20] of under 0% and an inhibition at 10 µM [21] of under 0%. The inhibition at 10 µM [22] was 2.95%, the inhibition at 10 µM [23] was 0.32% and the inhibition at 10 µM [24] was under 0%. The inhibition at 10 µM [25] was under 0%, the inhibition at 10 µM [26] was 8.82% and the inhibition at 10 µM [27] was 1.42%. It also gave an inhibition at 10 µM [28] of under 0%, an inhibition at 10 µM [29] of 12.9% and an inhibition at 10 µM [30] of under 0%. The inhibition at 10 µM [31] was under 0%, the inhibition at 10 µM [32] was 6.56% and the inhibition at 10 µM [33] was under 0%. It also gave an inhibition at 10 µM [34] of 2.91%, an inhibition at 10 µM [35] of under 0% and an inhibition at 10 µM [36] of under 0%. The inhibition at 10 µM [37] was under 0%, the inhibition at 10 µM [38] was 0.21% and the inhibition at 10 µM [39] was 3%. For the same compound, the inhibition at 10 µM [40] was 19.4%, the inhibition at 10 µM [41] was under 0% and the inhibition at 10 µM [42] was 18.6%. The inhibition at 10 µM [43] was 0.94%, the inhibition at 10 µM [44] was 4.88% and the inhibition at 10 µM [45] was under 0%. For the same compound, the inhibition at 10 µM [46] was under 0% and the inhibition at 10 µM [47] was 10.5%.

For `CCSc1nc(-c2ccc(OC)cc2)cc(-c2cccc(OC)c2)n1` [Compound 17, 2-(Ethylthio)-6-(3-methoxyphenyl)-4-(4-methoxyphenyl)pyrimidine], the inhibition at 10 µM [1] was under 0%, the inhibition at 10 µM [2] was under 0% and the inhibition at 10 µM [3] was 0.61%. The inhibition at 10 µM [4] was under 0%, the inhibition at 10 µM [5] was under 0% and the inhibition at 10 µM [6] was 9.72%. For the same compound, the inhibition at 10 µM [7] was under 0%, the inhibition at 10 µM [8] was under 0% and the inhibition at 10 µM [9] was 1.03%. For the same compound, the inhibition at 10 µM [10] was 2.62%, the inhibition at 10 µM [11] was 18.6% and the inhibition at 10 µM [12] was under 0%. For the same compound, the inhibition at 10 µM [13] was under 0%, the inhibition at 10 µM [14] was under 0% and the inhibition at 10 µM [15] was under 0%. It also gave an inhibition at 10 µM [16] of 2.23%, an inhibition at 10 µM [17] of 5.7% and an inhibition at 10 µM [18] of under 0%. It also gave an inhibition at 10 µM [19] of under 0%, an inhibition at 10 µM [20] of under 0% and an inhibition at 10 µM [21] of 6.41%. It also gave an inhibition at 10 µM [22] of 4.56%, an inhibition at 10 µM [23] of under 0% and an inhibition at 10 µM [24] of under 0%. For the same compound, the inhibition at 10 µM [25] was under 0%, the inhibition at 10 µM [26] was 5.39% and the inhibition at 10 µM [27] was under 0%. It also gave an inhibition at 10 µM [28] of under 0%, an inhibition at 10 µM [29] of 3.36% and an inhibition at 10 µM [30] of under 0%. For the same compound, the inhibition at 10 µM [31] was under 0%, the inhibition at 10 µM [32] was 3.83% and the inhibition at 10 µM [33] was under 0%. It also gave an inhibition at 10 µM [34] of under 0%, an inhibition at 10 µM [35] of under 0% and an inhibition at 10 µM [36] of under 0%. For the same compound, the inhibition at 10 µM [38] was under 0%, the inhibition at 10 µM [39] was under 0% and the inhibition at 10 µM [40] was 18.4%. The inhibition at 10 µM [41] was 1.81%, the inhibition at 10 µM [42] was 10.2% and the inhibition at 10 µM [43] was under 0%. It also gave an inhibition at 10 µM [44] of under 0%, an inhibition at 10 µM [45] of under 0% and an inhibition at 10 µM [46] of under 0%. The inhibition at 10 µM [47] was 13.7%.
